Measurements taken from US12304894B2, “Derivatives of adamantyl oxadiazoles and pharmaceutically acceptable solvates, hydrates and salts thereof, pharmaceutical composition comprising same, synthesis method, suitable for use as effective and selective inhibitors of the reductase activity of the enzyme 11-beta dehydrogenase type 1 …” (PONTIFICIA UNIVERSIDAD CATOLICA DE CHILE, priority 2019, dated 2025).

What was measured:
Type in all cases: biochemical
[1] = molecular target: T1, recombinant 11β-HSD1 enzyme (Homo sapiens (Human), UniProt P28845); experiment: 11β-HSD1 reductase activity (HTRF Cortisol Kit); conditions: 266 nM cortisone, 333 μM NADPH, read-out: 11b-HSD1 reductase (HTRF) IC50
T1 sequence (P28845 whole entry): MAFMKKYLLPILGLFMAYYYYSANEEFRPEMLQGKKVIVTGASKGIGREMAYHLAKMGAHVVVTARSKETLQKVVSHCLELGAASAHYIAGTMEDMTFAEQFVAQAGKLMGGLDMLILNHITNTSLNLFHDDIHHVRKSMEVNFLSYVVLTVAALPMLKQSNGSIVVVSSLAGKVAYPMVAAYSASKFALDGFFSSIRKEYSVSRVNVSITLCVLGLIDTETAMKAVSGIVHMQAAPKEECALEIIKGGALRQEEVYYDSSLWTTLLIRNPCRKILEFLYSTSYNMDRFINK
Procedure: Determination of 11β-HSD1 Reductase Activity
First, stock solutions of the compounds were prepared in DMSO at a concentration of […], of which serial dilutions were made in order to determine the efficacy curve.
As for the recombinant 11β-HSD1 enzyme (Cayman Chemical, MI, USA; Item No. 10007815), it was prepared in Tris Buffer 20 mM EDTA 5 mM pH 6.0 (Tris buffer) at different dilutions.
Initially, the enzyme concentration to be used in the assays in order to evaluate the biological activity of the compounds was determined. The Cortisol Kit product (Cisbio, MA, USA; Cat no. 62CRTPEG) was used for that purpose.
The protocol consisted of preparing the reaction buffer, adding 266 nM cortisone and 333 μM NADPH in Tris buffer. Then, this reaction buffer is added to the wells of the HTRF (Homogeneous Time Resolved Fluorescence) reaction plate together with the enzyme in a 4:1 ratio respectively, and incubated for 2 hours at 37° C. In the case of the control wells, two wells with Tris buffer were added, without compounds.
After the incubation time, the reagents of the Cortisol kit were added, Cortisol d2 and Cortisol cryptate in sample ratio, Cortisol d2 and cortisol cryptate 2:1:1, in a quantity according to the size of the well as indicated by the supplier (for the negative control of the kit, the cortisol d2 is replaced by the kit's reconstitution buffer). This reaction is incubated for 1 hour at room temperature in order to later read the fluorescence at 665 and 620 nm.
Once the enzyme concentration to be used has been determined, the cortisol kit protocol is continued to determine the efficacy curve for the compounds. As previously done, a plate for HTRF was prepared adding to each well of the reaction buffer, the recombinant 11β-HSD1 enzyme and the compounds to be assayed in a 3:1:1 ratio, respectively. The plate was subsequently incubated at 37° C. for 2 hours.
After the incubation time, the reagents of the cortisol kit, cortisol d2 and cortisol cryptate, are added, and were incubated again for 1 hour at room temperature. Finally, the fluorescence of each well was determined at 665 and 620 nm.

[2] = tested on: 11β-HSD2; experiment: 11β-HSD2 oxidase activity in human hepatic microsomes (HTRF Cortisol Kit); conditions: remaining activity at 100 nM compound
Procedure: Determination of 11β-HSD2 Oxidase Activity
The concentration of cortisone produced in the reaction, with and without the compounds, was determined using the Cortisol Kit (Cisbio) product in order to evaluate the 11β-HSD2 oxidase activity.
As in the previous assays, the compounds are reconstituted in DMSO to 10 mM stock, in order to subsequently make serial dilutions to determine the efficacy curve.
To perform the assay, the HTRF plate was prepared containing Tris buffer, 100 nM cortisol and 200 μM NAD^+. Enzyme is added to the corresponding wells in a 4:1 ratio, respectively, and incubated for 2 hours at 37° C. For the kit control, two wells are added only with Tris buffer.
After the incubation time, the reagents of the Cortisol kit, Cortisol d2 and Cortisol cryptate, in a sample ratio, Cortisol d2 and cortisol cryptate 2:1:1 are added. For the negative control, cortisol d2 was replaced in some wells by the kit's reconstitution buffer. The plate was incubated for 1 hour at room temperature to later read at 665 and 620 nm.
For this purpose, the reaction buffer was prepared and subsequently, in a plate for HTRF, the reaction buffer, the microsomes in a concentration of 5 mg/mL and the compound in a ratio of 3:1:1, respectively, were added to each well. In the case of reaction controls, the reaction buffer without cortisol and without compound is included for the negative control. For the positive control, no compound is added, and for the kit controls, only the reaction buffer is added to the negative and positive control wells.
After incubating the plate for 2 hours, the reagents of the cortisol kit, cortisol d2 and cortisol cryptate, are added to the corresponding wells as indicated above. They are then incubated at room temperature for 1 hour to finally read the 665 and 620 nm fluorescence.

[3] = molecular target: T1, recombinant 11β-HSD1 enzyme; experiment: 11β-HSD1 oxidase activity (HTRF Cortisol Kit); conditions: for 11b-HSD1 oxidase (activ rem %) 100 nM: remaining activity at 100 nM compound; for 11b-HSD1 oxidase (activ rem %) 100 uM: remaining activity at 100 uM compound
Procedure: Determination of 11β-HSD1 Oxidase Activity
The Cortisol Kit (Cisbio) product was used for that purpose.
For the analysis, the compounds are reconstituted in DMSO in a stock of 10 mM concentration, from which serial dilutions were prepared for the efficiency curve.
The recombinant 11β-HSD1 enzyme dilutions were prepared in 20 mM Tris Buffer 5 mM EDTA pH 6.0 (Tris buffer).
Initially, the enzyme concentration to be used was determined. For this purpose, a plate for HRTF was prepared with Tris buffer with 100 nM cortisol and 200 μM NADP+, including in the wells of the plate for HTRF together with the enzyme in a 4:1 ratio, respectively, and incubated for 2 hours at 37° C. After this time, the reagents of the Cortisol kit, Cortisol d2 and Cortisol cryptate in sample ratio, Cortisol d2 and cortisol cryptate 2:1:1 were added, incubating this new reaction for 1 hour at room temperature. Subsequently, the fluorescence was determined at 665 and 620 nm.
An HRTF plate was again prepared, where the reaction buffer, the recombinant 11β-HSD1 enzyme and the compound were added in each well in a 3:1:1 ratio, respectively. The plate was incubated at 37° C. for 2 hours. After the incubation time, the reagents of the cortisol kit, cortisol d2 and cortisol cryptate, were added as indicated above. They were then incubated at room temperature for 1 hour to finally read the fluorescence at 665 and 620 nm.

Compound | IC50 [1] [nM] | 11b-HSD2 oxidase (activ rem %) Microcosms 100 nM [2] [%] | 11b-HSD1 oxidase (activ rem %) 100 nM [3] [%] | 11b-HSD1 oxidase (activ rem %) 100 uM [3] [%]
c1ccc(CCc2nc(C34CC5CC(CC(C5)C3)C4)no2)cc1 [BD-31, 1-phenyl-2-(3-adamantyl-1,2,4-oxadiazol-5-yl)ethane] | 147 | 55.4 | 86.1 | 86.20
COc1ccc(CCc2nc(C34CC5CC(CC(C5)C3)C4)no2)cc1 [BD-32, 1-(4-methoxyphenyl)-2-(3-adamantyl-1,2,4-oxadiazol-5-yl)ethane] | 95.4 | 60.0 | 104.1 | 62.7
Clc1ccc(CCc2nc(C34CC5CC(CC(C5)C3)C4)no2)cc1 [BD-33, 1-(4-chlorophenyl)-2-(3-adamantyl-1,2,4-oxadiazol-5-yl)ethane] | 9.2 | 59.4 | 107.0 | 75.4
Fc1ccc(CCc2nc(C34CC5CC(CC(C5)C3)C4)no2)cc1 [BD-34, 1-(4-fluorophenyl)-2-(3-adamantyl-1,2,4-oxadiazol-5-yl)ethane] | 104 | 68.8 | 109.0 | 77.2
Brc1ccc(CCc2nc(C34CC5CC(CC(C5)C3)C4)no2)cc1 [BD-35, 1-(4-bromophenyl)-2-(3-adamantyl-1,2,4-oxadiazol-5-yl)ethane] | 9.9 | 79.5 | 91.3 | 104.0
Cc1ccc(CCc2nc(C34CC5CC(CC(C5)C3)C4)no2)cc1 [BD-36, 1-(4-methylphenyl)-2-(3-adamantyl-1,2,4-oxadiazol-5-yl)ethane] | 102 | 40.1 | 110.3 | 95.3
Oc1ccc(CCc2nc(C34CC5CC(CC(C5)C3)C4)no2)cc1 [BD-37, 1-(4-hydroxyphenyl)-2-(3-adamantyl-1,2,4-oxadiazol-5-yl)ethane] | 1.1 | 58.3 | 109.6 | 88.1
COc1cccc(CCc2nc(C34CC5CC(CC(C5)C3)C4)no2)c1 [BD-38, 1-(3-methoxyphenyl)-2-(3-adamantyl-1,2,4-oxadiazol-5-yl)ethane] | 102 | 61.9 | 88.1 | 100.5
c1cc(CCc2nc(C34CC5CC(CC(C5)C3)C4)no2)ccn1 [BD-39, 1-(4-pyridyl)-2-(3-adamantyl-1,2,4-oxadiazol-5-yl)ethane] | 97 | 59.2 | 89.4 | 75.3
CC(C)(C)c1ccc(CCc2nc(C34CC5CC(CC(C5)C3)C4)no2)cc1 [BD-41, 1-(4-tert-butylphenyl)-2-(3-adamantyl-1,2,4-oxadiazol-5-yl)ethane] | 102 | 49.7 | 85.9 | 86.1
Fc1cccc(CCc2nc(C34CC5CC(CC(C5)C3)C4)no2)c1 [BD-42, 1-(3-fluorophenyl)-2-(3-adamantyl-1,2,4-oxadiazol-5-yl)ethane] | 92 | 59.2 | 83.0 | 89.8
c1ccc(CCc2nc(C34CC5CC(CC(C5)C3)C4)no2)nc1 [BD-45, 1-(2-pyridyl)-2-(3-adamantyl-1,2,4-oxadiazol-5-yl)ethane] | 1.1 | 70.2 | 97.4 | –
O=[N+]([O-])c1ccc(CCc2nc(C34CC5CC(CC(C5)C3)C4)no2)cc1 [BD-46, 1-(4-nitrophenyl)-2-(3-adamantyl-1,2,4-oxadiazol-5-yl)ethane] | 24 | 62.0 | 104.6 | 65.4
